# Results reported in PubChem BioAssay (NCI).
#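 Values below derive from 48-hour exposures of cells grown in 96-well plates, with endpoints linearly interpolated between the two concentrations bracketing the appropriate inhibition level. Here, GI50 denotes the concentration required for 50% inhibition of growth. TGI: concentration producing complete growth inhibition.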
# How the values were obtained:
# Experiment in all cases: NCI anticancer screen, dose series, 48 h
# BT-549 breast = system: BT-549 breast
# SN12C renal = system: SN12C renal
# OVCAR-3 ovarian = system: OVCAR-3 ovarian
# SK-MEL-28 melanoma = system: SK-MEL-28 melanoma
# U251 CNS = system: U251 CNS
# HT29 colon = system: HT29 colon
# COLO 205 colon = system: COLO 205 colon
# SK-MEL-5 melanoma = system: SK-MEL-5 melanoma
# OVCAR-8 ovarian = system: OVCAR-8 ovarian
# NCI-H226 lung = system: NCI-H226 lung
# HOP-62 NSCLC = system: HOP-62 NSCLC
# NCI/ADR-RES ovarian = system: NCI/ADR-RES ovarian
# MOLT-4 leukemia = system: MOLT-4 leukemia
# NCI-H23 lung = system: NCI-H23 lung
# MCF7 breast = system: MCF7 breast
# NCI-H522 lung = system: NCI-H522 lung
# HCT-15 colon = system: HCT-15 colon
# SW-620 colon = system: SW-620 colon
# PC-3 prostate = system: PC-3 prostate
# HL-60(TB) leukemia = system: HL-60(TB) leukemia
# OVCAR-5 ovarian = system: OVCAR-5 ovarian
# UO-31 renal = system: UO-31 renal
# HS 578T breast = system: HS 578T breast
# SF-295 CNS = system: SF-295 CNS
# OVCAR-4 ovarian = system: OVCAR-4 ovarian
# NCI-H460 lung = system: NCI-H460 lung
# DU-145 prostate = system: DU-145 prostate
# CAKI-1 renal = system: CAKI-1 renal
# A498 renal = system: A498 renal
# CCRF-CEM leukemia = system: CCRF-CEM leukemia
# RPMI-8226 leukemia = system: RPMI-8226 leukemia
# SF-268 CNS = system: SF-268 CNS
# IGROV1 ovarian = system: IGROV1 ovarian
# RXF 393 renal = system: RXF 393 renal
# SNB-75 CNS = system: SNB-75 CNS
# SF-539 CNS = system: SF-539 CNS
# HCT-116 colon = system: HCT-116 colon
# 786-0 renal = system: 786-0 renal
# A549 NSCLC = system: A549 NSCLC
# SNB-19 CNS = system: SNB-19 CNS
# TK-10 renal = system: TK-10 renal
# MDA-MB-435 = system: MDA-MB-435
# SK-OV-3 ovarian = system: SK-OV-3 ovarian
# UACC-62 melanoma = system: UACC-62 melanoma
# MALME-3M melanoma = system: MALME-3M melanoma
# KM12 colon = system: KM12 colon
# LOX IMVI melanoma = system: LOX IMVI melanoma
# MDA-MB-231 breast = system: MDA-MB-231 breast
# ACHN renal = system: ACHN renal
# HCC-2998 colon = system: HCC-2998 colon
# SK-MEL-2 melanoma = system: SK-MEL-2 melanoma
# T-47D breast = system: T-47D breast
# HOP-92 NSCLC = system: HOP-92 NSCLC
# K-562 leukemia = system: K-562 leukemia
# UACC-257 melanoma = system: UACC-257 melanoma
# M14 melanoma = system: M14 melanoma
# EKVX NSCLC = system: EKVX NSCLC
smiles,measurement,setting,value
COC(=O)C(N)CSC(c1ccccc1)(c1ccccc1)c1ccccc1 (stereo not drawn),GI50,BT-549 breast,2290 nM
same,TGI,BT-549 breast,53.3 µM
same,GI50,SN12C renal,863 nM
same,TGI,SN12C renal,> 100 µM
same,GI50,OVCAR-3 ovarian,2970 nM
same,TGI,OVCAR-3 ovarian,44.8 µM
same,GI50,SK-MEL-28 melanoma,3.14 µM
same,TGI,SK-MEL-28 melanoma,> 100 µM
same,GI50,U251 CNS,610 nM
same,TGI,U251 CNS,> 100 µM
same,GI50,HT29 colon,3.36 µM
same,TGI,HT29 colon,59.6 µM
same,GI50,COLO 205 colon,2150 nM
same,TGI,COLO 205 colon,> 100 µM
same,GI50,SK-MEL-5 melanoma,538 nM
same,TGI,SK-MEL-5 melanoma,26.9 µM
same,GI50,OVCAR-8 ovarian,2530 nM
same,TGI,OVCAR-8 ovarian,> 100 µM
same,GI50,NCI-H226 lung,5.38 µM
same,TGI,NCI-H226 lung,> 100 µM
same,GI50,HOP-62 NSCLC,48.9 µM
same,TGI,HOP-62 NSCLC,> 100 µM
same,GI50,NCI/ADR-RES ovarian,8.81 µM
same,TGI,NCI/ADR-RES ovarian,73.5 µM
same,GI50,MOLT-4 leukemia,4 µM
same,TGI,MOLT-4 leukemia,> 100 µM
same,GI50,NCI-H23 lung,4.45 µM
same,TGI,NCI-H23 lung,> 100 µM
same,GI50,MCF7 breast,445 nM
same,TGI,MCF7 breast,> 100 µM
same,GI50,NCI-H522 lung,334 nM
same,TGI,NCI-H522 lung,2220 nM
same,GI50,HCT-15 colon,2700 nM
same,TGI,HCT-15 colon,> 100 µM
same,GI50,SW-620 colon,679 nM
same,TGI,SW-620 colon,> 100 µM
same,GI50,PC-3 prostate,1720 nM
same,TGI,PC-3 prostate,> 100 µM
same,GI50,HL-60(TB) leukemia,1820 nM
same,TGI,HL-60(TB) leukemia,8.48 µM
same,GI50,OVCAR-5 ovarian,3.84 µM
same,TGI,OVCAR-5 ovarian,> 100 µM
same,GI50,UO-31 renal,9.93 µM
same,TGI,UO-31 renal,> 100 µM
same,GI50,HS 578T breast,512 nM
same,TGI,HS 578T breast,15 µM
same,GI50,SF-295 CNS,2890 nM
same,TGI,SF-295 CNS,> 100 µM
same,GI50,OVCAR-4 ovarian,15.5 µM
same,TGI,OVCAR-4 ovarian,> 100 µM
same,GI50,NCI-H460 lung,2420 nM
same,TGI,NCI-H460 lung,43.8 µM
same,GI50,DU-145 prostate,3.26 µM
same,TGI,DU-145 prostate,> 100 µM
same,GI50,CAKI-1 renal,5.51 µM
same,TGI,CAKI-1 renal,> 100 µM
same,GI50,A498 renal,629 nM
same,TGI,A498 renal,54 µM
same,GI50,CCRF-CEM leukemia,636 nM
same,TGI,CCRF-CEM leukemia,> 100 µM
same,GI50,RPMI-8226 leukemia,676 nM
same,TGI,RPMI-8226 leukemia,28.5 µM
same,GI50,SF-268 CNS,1040 nM
same,TGI,SF-268 CNS,> 100 µM
same,GI50,IGROV1 ovarian,9.86 µM
same,TGI,IGROV1 ovarian,> 100 µM
same,GI50,RXF 393 renal,303 nM
same,TGI,RXF 393 renal,11.7 µM
same,GI50,SNB-75 CNS,3.68 µM
same,TGI,SNB-75 CNS,41.6 µM
same,GI50,SF-539 CNS,399 nM
same,TGI,SF-539 CNS,3.53 µM
same,GI50,HCT-116 colon,418 nM
same,TGI,HCT-116 colon,34.4 µM
same,GI50,786-0 renal,4.23 µM
same,TGI,786-0 renal,86.5 µM
same,GI50,A549 NSCLC,2930 nM
same,TGI,A549 NSCLC,> 100 µM
same,GI50,SNB-19 CNS,1580 nM
same,TGI,SNB-19 CNS,> 100 µM
same,GI50,TK-10 renal,7.04 µM
same,TGI,TK-10 renal,83.5 µM
same,GI50,MDA-MB-435,247 nM
same,TGI,MDA-MB-435,644 nM
same,GI50,SK-OV-3 ovarian,607 nM
same,TGI,SK-OV-3 ovarian,> 100 µM
same,GI50,UACC-62 melanoma,2180 nM
same,TGI,UACC-62 melanoma,> 100 µM
same,GI50,MALME-3M melanoma,4.7 µM
same,TGI,MALME-3M melanoma,74 µM
same,GI50,KM12 colon,2880 nM
same,TGI,KM12 colon,53.5 µM
same,GI50,LOX IMVI melanoma,4.48 µM
same,TGI,LOX IMVI melanoma,> 100 µM
same,GI50,MDA-MB-231 breast,1620 nM
same,TGI,MDA-MB-231 breast,25.4 µM
same,GI50,ACHN renal,922 nM
same,TGI,ACHN renal,> 100 µM
same,GI50,HCC-2998 colon,2100 nM
same,TGI,HCC-2998 colon,29.9 µM
same,GI50,SK-MEL-2 melanoma,493 nM
same,TGI,SK-MEL-2 melanoma,5.72 µM
same,GI50,T-47D breast,4.62 µM
same,TGI,T-47D breast,> 100 µM
same,GI50,HOP-92 NSCLC,436 nM
same,TGI,HOP-92 NSCLC,13.2 µM
same,GI50,K-562 leukemia,630 nM
same,TGI,K-562 leukemia,> 100 µM
Cc1cccc(C)c1NC(=O)/C(Cc1nc2ccc([N+](=O)[O-])cc2[nH]c1=O)=N\NC(N)=O,TGI,BT-549 breast,> 100 µM
same,TGI,SN12C renal,> 100 µM
same,TGI,OVCAR-3 ovarian,> 100 µM
same,TGI,SK-MEL-28 melanoma,> 100 µM
same,TGI,U251 CNS,> 100 µM
same,TGI,HT29 colon,> 100 µM
same,TGI,COLO 205 colon,> 100 µM
same,TGI,SK-MEL-5 melanoma,> 100 µM
same,TGI,OVCAR-8 ovarian,> 100 µM
same,TGI,NCI-H226 lung,> 100 µM
same,TGI,NCI/ADR-RES ovarian,> 100 µM
same,TGI,MOLT-4 leukemia,> 100 µM
same,TGI,NCI-H23 lung,> 100 µM
same,TGI,MCF7 breast,> 100 µM
same,TGI,NCI-H522 lung,> 100000 nM
same,TGI,UACC-257 melanoma,> 100 µM
same,TGI,HCT-15 colon,> 100 µM
same,TGI,SW-620 colon,> 100 µM
same,TGI,PC-3 prostate,> 100 µM
same,TGI,HL-60(TB) leukemia,> 100 µM
same,TGI,OVCAR-5 ovarian,> 100 µM
same,TGI,UO-31 renal,> 100 µM
same,TGI,HS 578T breast,> 100 µM
same,TGI,SF-295 CNS,> 100 µM
same,TGI,OVCAR-4 ovarian,> 100 µM
same,TGI,NCI-H460 lung,> 100 µM
same,TGI,DU-145 prostate,> 100 µM
same,TGI,CAKI-1 renal,> 100 µM
same,TGI,A498 renal,> 100 µM
same,TGI,CCRF-CEM leukemia,> 100 µM
same,TGI,RPMI-8226 leukemia,> 100 µM
same,TGI,SF-268 CNS,> 100 µM
same,TGI,IGROV1 ovarian,> 100 µM
same,TGI,SNB-75 CNS,> 100 µM
same,TGI,SF-539 CNS,> 100 µM
same,TGI,HCT-116 colon,> 100 µM
same,TGI,786-0 renal,> 100 µM
same,TGI,A549 NSCLC,> 100 µM
same,TGI,SNB-19 CNS,> 100 µM
same,TGI,TK-10 renal,> 100 µM
same,TGI,MDA-MB-435,> 100000 nM
same,TGI,SK-OV-3 ovarian,> 100 µM
same,TGI,UACC-62 melanoma,> 100 µM
same,TGI,MALME-3M melanoma,> 100 µM
same,TGI,KM12 colon,> 100 µM
same,TGI,LOX IMVI melanoma,> 100 µM
same,TGI,MDA-MB-231 breast,> 100 µM
same,TGI,ACHN renal,> 100 µM
same,TGI,M14 melanoma,> 100 µM
same,TGI,HCC-2998 colon,> 100 µM
same,TGI,SK-MEL-2 melanoma,> 100 µM
same,TGI,T-47D breast,> 100 µM
same,TGI,HOP-92 NSCLC,> 100 µM
same,TGI,EKVX NSCLC,> 100 µM
same,TGI,K-562 leukemia,> 100 µM
